Measurements from patent publication US20220273752A1, “MODULATION OF DENDRITIC CELL FUNCTION BY THE PHOSPHOLIPID MESSENGER LPA” (Cornell University, priority 2019, published 2022).

Key:
[1] = tested on: ID8-based ovarian cancer cells (Enpp2 sgRNA or control sgRNA); assay: Host survival of mice bearing autotaxin-deficient (Enpp2 sgRNA) or control sgRNA ID8-based ovarian cancer; assay type: in vivo, mouse; details: for host survival in mice bearing autotaxin-deficient ovarian cancer: Enpp2 sgRNA tumors, compared with all other experimental groups
Source text: FIG. 17A-17C illustrate host survival and disease progression in mice bearing autotaxin-deficient ovarian cancer (Enpp2 sgRNA) and treated with the TLR3 agonist Poly(1:C). FIG. 17A schematically illustrates the experimental scheme and treatment regimen. FIG. 17B graphically illustrates the survival of the indicated groups when treated as described in FIG. 17A. […] FIG. 17C graphically illustrates ascites accumulation over time of the groups of animals treated as described in FIG. 17A. ****P<0.0001.
FIG. 18A-18C illustrate that blockade of the type-I IFN receptor 1 (IFNAR1) abrogates the therapeutic effects Poly-(I:C) in mice bearing autotaxin-deficient ovarian tumors. FIG. 18A schematically illustrates the experimental scheme and treatment regimen employed. FIG. 18B graphically illustrates the percent survival for the groups described in FIG. 18A. […] FIG. 18C graphically illustrates ascites accumulation over time of the groups of animals treated as described in FIG. 18A. ***P<0.0005, ****P<0.0001.
FIG. 19A-19C illustrate the effects of the PARP inhibitor Talazoparib in mice bearing autotaxin-deficient ovarian cancer cells. FIG. 19A schematically illustrates the experimental scheme and treatment regimen employed. FIG. 19B graphically illustrates the percent survival for the groups described in FIG. 19A. […] FIG. 19C graphically illustrates ascites accumulation over time of the groups of animals treated as described in FIG. 19A. **P<0.001, ***P<0.0005, ****P<0.0001.
To define the in vivo relevance of the findings related to type-I IFN expression, the inventors abrogated the gene encoding the LPA-generating enzyme autotaxin (Enpp2) in ID8-based ovarian cancer cells lines using CRISPR-Cas9.
Based on these key findings, experiments were then performed to determine whether treatment with the TLR3 agonist Poly(I:C), which can enhance type-I IFN immune responses, could increase survival in mice bearing autotaxin-deficient ovarian tumors.
To determine whether these effects are really mediated by enhanced type-I IFN signaling, mice were treated with anti-IFNAR1 blocking antibodies. […]

[2] = tested on: ovarian cancer cells that overexpress VEGFA and Defb29 (ID8-Defb29/Vegf-A); assay: Anti-tumor efficacy (host survival) in mice bearing ID8-Defb29/Vegf-A ovarian cancer; assay type: in vivo, mouse; details: mice bearing metastatic ovarian cancer
Source text: FIG. 9A is a schematic diagram illustrating the treatment of female mice that were intraperitoneally injected with ID8 ovarian cancer cells overexpressing VEGFA and Def29b. FIG. 9B graphically illustrates host survival as monitored over time of the mice treated as described for FIG. 9A. ***P<0.001. ****P<0.0001.
FIG. 20A schematically illustrates the experimental scheme and treatment regimen employed.
FIG. 20B graphically illustrates the percent survival for the groups described in FIG. 20A. […] FIG. 20C graphically illustrates ascites accumulation over time of the groups of animals treated as described in FIG. 20A. **P<0.001, ***P<0.001. ****P<0.0001.
Consequently, production of this bioactive lipid mediator limits the effects of immunotherapies such as Poly-(I:C) treatment, and of novel chemotherapeutic interventions such as PARP inhibitors. Targeting the autotaxin-LPA pathway may therefore be beneficial to control ovarian cancer progression and unleash protective anti-tumor immune responses that extend host survival. […] Therefore, our findings indicate that autotaxin inhibitors could be repurposed to maximize the efficacy of PARP inhibitors and awaken protective type-I IFN responses in ovarian cancer patients.
Methods similar to those described above were used to evaluate the anti-tumor effects of various autotaxin and LPA receptor inhibitors. The inhibitors were administered to mice that had received ovarian cancer cells that overexpress VEGFA and Defb29 (ID8-Defb29/Vegf-A).

[3] = tested on: tumor-associated dendritic cells (tDCs); assay: Ex vivo treatment of ovarian cancer ascites, gene expression in tumor-associated DCs; assay type: cell-based, mouse; details: ascites incubated ex vivo with 200 nM or 1000 nM, DCs isolated 24 h later; relative to Actb
Source text: FIG. 7A-7B illustrate that conditional PERK deletion in CD11c^+ immune cells (Perk^f/f Cd11c-Cre) delays metastatic ovarian cancer progression. FIG. 7A illustrates survival of female mice of the indicated genotypes (n=8/group) that were intraperitoneally challenged with parental ID8 ovarian cancer cells and host survival was monitored over time. *P<0.05. ****P<0.0001. n=8/group. FIG. 7B graphically illustrates survival of female mice of the indicated genotypes (n=8/group) that were intraperitoneally challenged with variant ovarian cancer cells that are highly aggressive and overexpress VEGFA and Defb29 (ID8-Defb29/Vegf-A). Host survival was monitored over time. *P<0.05. ****P<0.0001. n=8/group. FIG. 8A-8D graphically illustrate expression of LPA/ER stress-induced tumorigenic and immunomodulatory genes by tumor-associated dendritic cells (tDCs) present in ovarian cancer ascites can be diminished using a small-molecule inhibitor targeting autotaxin.

PERK in murine DCs = assay: PERK inhibitor in murine DCs in vitro (data not shown); assay type: cell-based
Source text: (§1) The structure of AMG PERK 44 is shown below as a HCl salt.

[4] = tested on: PERK in human monocyte-derived DCs; assay: RT-qPCR gene expression in human monocyte-derived DCs treated with LPA and TM, with or without PERK inhibitor; assay type: cell-based; details: LPA 100 μM and TM 1 μg/ml, 6 hours; RT-qPCR relative to ACTB
Procedure: Monocyte-derived DCs were generated from peripheral human blood and cells were treated for 6 hours with LPA (100 μM), TM (1 μg/ml) or the combination of both, in the presence or absence of the PERK inhibitor AMG PERK 44. Gene expression was subsequently determined by RT-qPCR relative to endogenous ACTB in each sample. FIG. 6A graphically illustrates expression of the PERK-dependent ER stress response gene DDIT3 in monocyte-derived DCs with or without treatment by AMG PERK 44. FIG. 6B graphically illustrates expression of IL6 in monocyte-derived DCs with or without treatment by AMG PERK 44. FIG. 6C graphically illustrates expression of IL1B in monocyte-derived DCs with or without treatment by AMG PERK 44. FIG. 6D graphically illustrates expression of PTGS2 in monocyte-derived DCs with or without treatment by AMG PERK 44. FIG. 6E graphically illustrates expression of VEGFA in monocyte-derived DCs with or without treatment by AMG PERK 44.
as §1

## Poly(I:C)
[1]
  host survival in mice bearing autotaxin-deficient ovarian cancer: remarkable increase in survival
[1]; mice bearing control sgRNA ovarian cancer
  host survival, treatment alone: extended host survival

## CCc1nc2c(C)cc(N3CCN(CC(=O)N4CC(O)C4)CC3)cn2c1N(C)c1nc(-c2ccc(F)cc2)c(C#N)s1 [GLPG1690]
[2]; single agent
  host survival, single treatment: modestly extended host survival
[2]; with PARP inhibitor Talazoparib (FIG. 20)
  host survival, combined with Talazoparib: significantly improved the therapeutic effects of Talazoparib
[2]; with chemotherapy (FIG. 9)
  host survival, combined with chemotherapy: significantly enhanced the effects of chemotherapy
[3]
  expression of LPA/ER stress-induced Il1b, Il6, Ptgs2 and Vegf-α in tumor-associated DCs: decreased the expression

## Cn1ncnc1[C@H]1c2n[nH]c(=O)c3cc(F)cc(c23)N[C@@H]1c1ccc(F)cc1 [Talazoparib]
[1]
  host survival in mice bearing autotaxin-deficient ovarian cancer: significant increase in host survival

## Cc1ccc2cc(-c3c(C)ccc(C(=O)c4c(-c5ccccc5)n(C)n(-c5ccccc5)c4=O)c3N)ccc2n1 [AMG PERK 44]
PERK in murine DCs
  effect compared with PERK deletion in murine DCs: recapitulate the effects of PERK deletion
[4]
  induction of pro-tumoral factors (IL6, IL1B, PTGS2, VEGFA) in LPA-exposed human DCs undergoing ER stress: prevents induction of pro-tumoral factors
